What was measured:
[1] = test system: Plasma; experiment: AUC (0 to 24 hrs) in Swiss albino mouse plasma at 5 mg/kg, ip; format: ADME, organism-based; set-up: time < 24 hr, dose 5 mg/kg, route intraperitoneal; conditions: in vivo
[2] = test system: Plasma; experiment: Cmax in Swiss albino mouse plasma at 5 mg/kg, ip; format: ADME, organism-based; set-up: dose 5 mg/kg, route intraperitoneal; conditions: in vivo
[3] = test system: Liver; experiment: Half life in mouse liver microsomes; format: ADME, Microsome
[4] = target: T1, Histone-lysine N-methyltransferase EHMT2 (Homo sapiens, UniProt Q96KQ7)
T1 sequence (Q96KQ7 whole entry): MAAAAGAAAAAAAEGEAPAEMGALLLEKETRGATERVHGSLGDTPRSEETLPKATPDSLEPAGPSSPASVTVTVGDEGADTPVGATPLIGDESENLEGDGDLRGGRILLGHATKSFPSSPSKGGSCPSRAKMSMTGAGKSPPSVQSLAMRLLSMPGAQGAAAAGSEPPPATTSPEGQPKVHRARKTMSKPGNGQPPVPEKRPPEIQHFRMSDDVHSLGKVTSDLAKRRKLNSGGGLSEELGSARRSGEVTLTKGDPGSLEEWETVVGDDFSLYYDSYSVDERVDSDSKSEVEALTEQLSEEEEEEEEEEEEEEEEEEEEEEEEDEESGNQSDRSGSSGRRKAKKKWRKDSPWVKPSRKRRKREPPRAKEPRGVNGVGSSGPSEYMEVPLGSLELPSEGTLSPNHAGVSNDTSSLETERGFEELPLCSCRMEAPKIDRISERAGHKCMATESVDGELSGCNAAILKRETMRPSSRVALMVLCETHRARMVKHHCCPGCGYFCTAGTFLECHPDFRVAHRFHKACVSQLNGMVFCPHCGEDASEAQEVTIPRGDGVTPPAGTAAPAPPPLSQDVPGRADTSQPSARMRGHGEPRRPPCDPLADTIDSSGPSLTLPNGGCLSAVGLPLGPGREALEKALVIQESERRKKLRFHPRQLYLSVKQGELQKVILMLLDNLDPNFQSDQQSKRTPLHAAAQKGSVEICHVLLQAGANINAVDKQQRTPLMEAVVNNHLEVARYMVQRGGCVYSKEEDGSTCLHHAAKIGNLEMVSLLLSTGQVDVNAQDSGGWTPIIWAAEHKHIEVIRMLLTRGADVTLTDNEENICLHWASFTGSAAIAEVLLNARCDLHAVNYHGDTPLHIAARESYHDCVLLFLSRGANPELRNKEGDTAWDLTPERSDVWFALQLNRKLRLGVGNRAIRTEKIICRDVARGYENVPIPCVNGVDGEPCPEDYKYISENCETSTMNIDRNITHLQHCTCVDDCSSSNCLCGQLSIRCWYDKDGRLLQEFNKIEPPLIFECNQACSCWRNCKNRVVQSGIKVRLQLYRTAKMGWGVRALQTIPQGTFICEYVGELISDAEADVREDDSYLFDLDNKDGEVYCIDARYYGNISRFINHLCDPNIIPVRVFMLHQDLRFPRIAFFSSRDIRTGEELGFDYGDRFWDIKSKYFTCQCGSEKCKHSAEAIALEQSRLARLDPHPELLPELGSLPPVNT
Description: Inhibition of lysine methyltransferase G9a (unknown origin) using [3H]-SAM as substrate after 0.25 hrs by scintillation proximity assay

[5] = test system: MDA-MB-231; experiment: cells; conditions: Homo sapiens, MDA-MB-231, 48 h
Description: Cytotoxicity against human MDA-MB-231 cells after 48 hrs by Alamar Blue assay

[6] = target: T1, Histone-lysine N-methyltransferase EHMT2; remark: listed apart in the source
Description: Inhibition of lysine methyltransferase G9a in human MDA-MB-231 cells assessed as reduction of H3K9me2 cellular level by immunofluorescence in-cell Western assay

[7] = test system: Nucleic Acid; experiment: Ratio of drug level in brain to plasma in Swiss albino mouse at 5 mg/kg, ip; format: ADME, organism-based; set-up: dose 5 mg/kg, route intraperitoneal
[8] = AUC (0 to 24 hrs) in Swiss albino mouse brain at 5 mg/kg, ip; format: ADME, organism-based; set-up: time < 24 hr, dose 5 mg/kg, route intraperitoneal
[9] = Cmax in Swiss albino mouse brain at 5 mg/kg, ip; format: ADME, organism-based; set-up: dose 5 mg/kg, route intraperitoneal
[10] = target: T2, Alpha-2C adrenergic receptor (Homo sapiens, UniProt P18825); experiment: Binding affinity to adrenergic alpha2C receptor (unknown origin) by radioligand binding assay
T2 sequence (P18825 whole entry): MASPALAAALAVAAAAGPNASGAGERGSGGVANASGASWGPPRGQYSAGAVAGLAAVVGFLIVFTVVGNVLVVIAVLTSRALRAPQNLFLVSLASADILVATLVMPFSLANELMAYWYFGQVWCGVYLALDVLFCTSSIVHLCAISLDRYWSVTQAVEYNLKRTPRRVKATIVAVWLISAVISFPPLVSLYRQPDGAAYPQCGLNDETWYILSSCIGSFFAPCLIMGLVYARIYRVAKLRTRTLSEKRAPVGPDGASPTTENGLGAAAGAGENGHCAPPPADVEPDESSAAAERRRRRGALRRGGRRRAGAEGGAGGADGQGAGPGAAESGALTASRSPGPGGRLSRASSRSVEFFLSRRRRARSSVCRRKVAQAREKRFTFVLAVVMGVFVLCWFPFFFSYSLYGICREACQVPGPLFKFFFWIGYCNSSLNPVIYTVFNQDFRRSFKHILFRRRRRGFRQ

[11] = target: T3, Alpha-1D adrenergic receptor (Homo sapiens, UniProt P25100); experiment: Binding affinity to adrenergic alpha1D receptor (unknown origin) by radioligand binding assay
T3 sequence (P25100 whole entry): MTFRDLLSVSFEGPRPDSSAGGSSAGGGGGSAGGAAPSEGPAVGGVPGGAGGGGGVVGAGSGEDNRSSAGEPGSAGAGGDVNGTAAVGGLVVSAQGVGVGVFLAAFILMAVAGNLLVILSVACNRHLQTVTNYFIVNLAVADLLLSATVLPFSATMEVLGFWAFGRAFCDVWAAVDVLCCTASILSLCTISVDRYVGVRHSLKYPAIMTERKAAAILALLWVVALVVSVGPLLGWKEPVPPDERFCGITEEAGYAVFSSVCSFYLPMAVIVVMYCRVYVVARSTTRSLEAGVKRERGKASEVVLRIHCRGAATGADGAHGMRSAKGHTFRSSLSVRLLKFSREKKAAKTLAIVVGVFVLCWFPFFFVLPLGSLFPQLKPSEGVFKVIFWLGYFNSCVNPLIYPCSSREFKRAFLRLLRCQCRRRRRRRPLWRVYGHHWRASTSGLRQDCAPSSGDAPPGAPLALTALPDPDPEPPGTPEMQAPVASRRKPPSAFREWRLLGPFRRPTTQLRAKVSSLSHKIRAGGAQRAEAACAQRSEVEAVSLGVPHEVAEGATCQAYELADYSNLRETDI

[12] = test system: U2OS; experiment: Cytotoxicity against human U2OS cells after 48 hrs by Alamar Blue assay; format: cell-based
[13] = test system: PC-3; experiment: Cytotoxicity against human PC3 cells after 48 hrs by Alamar Blue assay; format: cell-based; conditions: PC-3, 48 h
[14] = test system: PANC-1; experiment: Cytotoxicity against human PANC1 cells after 48 hrs by Alamar Blue assay; format: cell-based; conditions: PANC-1, 48 h
[15] = Binding affinity to sigma 2 receptor (unknown origin) by radioligand binding assay; set-up: species or system Homo sapiens
[16] = target: Histamine H3 receptor (Homo sapiens, UniProt Q9Y5N1); experiment: Binding affinity to histamine H3 receptor (unknown origin) by radioligand binding assay
Sequence of Histamine H3 receptor (Q9Y5N1 whole entry): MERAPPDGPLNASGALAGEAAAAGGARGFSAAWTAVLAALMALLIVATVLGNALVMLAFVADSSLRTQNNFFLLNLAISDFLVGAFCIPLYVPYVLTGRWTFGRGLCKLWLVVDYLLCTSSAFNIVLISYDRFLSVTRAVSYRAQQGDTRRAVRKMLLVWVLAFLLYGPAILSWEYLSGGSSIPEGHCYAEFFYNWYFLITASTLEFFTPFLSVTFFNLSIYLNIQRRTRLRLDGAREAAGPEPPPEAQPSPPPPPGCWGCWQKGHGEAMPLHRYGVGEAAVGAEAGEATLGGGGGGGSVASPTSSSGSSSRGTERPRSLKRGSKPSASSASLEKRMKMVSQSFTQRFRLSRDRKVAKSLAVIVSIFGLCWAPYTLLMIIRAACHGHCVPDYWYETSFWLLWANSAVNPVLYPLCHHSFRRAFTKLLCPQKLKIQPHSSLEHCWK

COc1cc2c(NC3CCN(C(C)C)CC3)nc(C3CCCCC3)nc2cc1OCCCN1CCCC1
AUC [1]: 404 ng·h/mL
Cmax [2]: 66 ng/mL
t1/2 [3]: 1.22 h

COc1cc2c(NC3CCN(C(C)C)CC3)nc(N3CCCCC3)nc2cc1OCCCN1CCCC1
IC50 [4]: < 2.5 nM

COc1cc2c(NC3CCN(C(C)C)CC3)nc(N3CCCCCC3)nc2cc1OCCCN1CCCC1
IC50 [4]: < 2.5 nM

COc1cc2c(NC3CCN(C(C)C)CC3)nc(C3CCOCC3)nc2cc1OCCCN1CCC(F)(F)CC1
t1/2 [3]: 0.167 h
IC50 [4]: > 50000 nM

COc1cc2c(NC3CCN(C(C)C)CC3)nc(C3CCCCC3)nc2cc1OCCCN1CCC(F)(F)CC1
IC50 [4]: > 26000 nM

COc1cc2c(NC3CCN(C(C)C)CC3)nc(C3CCOCC3)nc2cc1OCCCN1CCCC1
t1/2 [3]: 0.267 h
EC50 [5]: > 50000 nM
IC50 [4]: 9 nM
IC50 [6]: 310 nM

COc1cc2c(NC3CCN(C4CC4)CC3)nc(N3CCS(=O)(=O)CC3)nc2cc1OCCCN1CCCC1
EC50 [5]: > 50000 nM
IC50 [4]: 4 nM
IC50 [6]: 590 nM

COc1cc2c(NC3CCN(C4CC4)CC3)nc(N3CCC(F)(F)CC3)nc2cc1OCCCN1CCCC1
EC50 [5]: 14700 nM
IC50 [4]: 3 nM
IC50 [6]: 310 nM

COc1cc2c(NC3CCN(C(C)C)CC3)nc(N3CC(F)(F)C(F)(F)C3)nc2cc1OCCCN1CCCC1
t1/2 [3]: > 1.5 h
IC50 [4]: 26 nM

COc1cc2c(NC3CCN(C(C)C)CC3)nc(N3CCS(=O)(=O)CC3)nc2cc1OCCCN1CCCC1
IC50 [4]: 14 nM

COc1cc2c(NC3CCN(C(C)C)CC3)nc(N3CCOCC3)nc2cc1OCCCN1CCCC1
AUC [1]: 1061 ng·h/mL
Cmax [2]: 731 ng/mL
BPR [7]: 0.68
t1/2 [3]: > 1.5 h
EC50 [5]: 23700 nM
AUC(0-t) at 24 h [8]: 721 ng·h/mL
Cmax [9]: 99 ng/mL

COc1cc2c(NC3CCN(C(C)C)CC3)nc(N3CCC(F)(F)CC3)nc2cc1OCCCN1CCCC1
Ki [10]: > 10000 nM
AUC [1]: 1265 ng·h/mL
Ki [11]: 4500 nM
Cmax [2]: 947 ng/mL
EC50 [12]: 6000 nM
BPR [7]: 0.33
t1/2 [3]: > 1.5 h
EC50 [5]: 16700 nM
EC50 [13]: 8900 nM
AUC(0-t) at 24 h [8]: 412 ng·h/mL
EC50 [14]: 3500 nM
Ki [15]: 900 nM
Ki [16]: 45 nM
Cmax [9]: 68 ng/mL

From ChEMBL document CHEMBL2440019, “Discovery of an in vivo chemical probe of the lysine methyltransferases G9a and GLP” (J Med Chem, 2013)
